CCOC(=O)OC1=C(c2cc(C)ccc2C)C(=O)NC12CCC(OC)CC2 (stereo unspecified)
solubility (mole fraction)
Details	278.15 K	283.15 K	288.15 K	293.15 K	298.15 K	303.15 K	308.15 K	313.15 K	318.15 K
in acetone	0.012	0.0151	0.0183	0.0221	0.0267	0.0323	0.0392	0.0472	0.0571
in ethanol	0.00319	0.00386	0.00504	0.00624	0.008	0.0103	0.0132	0.0169	0.0219
in isopropanol	0.00177	0.00232	0.0031	0.00415	0.00543	0.00711	0.00939	0.0125	0.0165
in methanol	0.00534	0.00669	0.00803	0.01	0.0127	0.0159	0.0202	0.0257	0.0321

From BigSolDB 2.1
